In patent US11578079B2, “SUMO inhibitor compounds and uses thereof” (CITY OF HOPE, priority 2018, dated 2023):

Legend:
[1] = biological target: T1, SUMO (Homo sapiens, UniProt Q9UBT2); assay: SUMO activity (Table I, biological activities); assay type: biochemical; design: key: + (less active); ++ (active); +++ (most active)
T1 sequence (Q9UBT2 1-640): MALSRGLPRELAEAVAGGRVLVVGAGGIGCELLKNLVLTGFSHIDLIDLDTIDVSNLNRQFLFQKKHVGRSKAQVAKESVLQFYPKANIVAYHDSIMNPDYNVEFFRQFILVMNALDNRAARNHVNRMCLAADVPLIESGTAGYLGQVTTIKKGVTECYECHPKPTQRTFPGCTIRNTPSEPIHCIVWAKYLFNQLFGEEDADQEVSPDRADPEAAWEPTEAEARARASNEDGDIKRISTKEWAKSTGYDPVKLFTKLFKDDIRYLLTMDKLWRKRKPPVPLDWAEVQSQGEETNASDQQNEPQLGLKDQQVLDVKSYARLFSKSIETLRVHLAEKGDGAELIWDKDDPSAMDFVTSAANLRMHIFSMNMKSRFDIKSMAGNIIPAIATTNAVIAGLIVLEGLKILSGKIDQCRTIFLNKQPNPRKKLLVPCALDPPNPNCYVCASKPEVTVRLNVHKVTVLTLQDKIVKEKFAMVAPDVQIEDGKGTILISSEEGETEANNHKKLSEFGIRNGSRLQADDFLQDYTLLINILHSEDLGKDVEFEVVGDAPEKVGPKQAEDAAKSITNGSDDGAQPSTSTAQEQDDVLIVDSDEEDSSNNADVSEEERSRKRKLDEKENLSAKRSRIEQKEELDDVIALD
T1 sequence (Q9UBE0 1-346 partner): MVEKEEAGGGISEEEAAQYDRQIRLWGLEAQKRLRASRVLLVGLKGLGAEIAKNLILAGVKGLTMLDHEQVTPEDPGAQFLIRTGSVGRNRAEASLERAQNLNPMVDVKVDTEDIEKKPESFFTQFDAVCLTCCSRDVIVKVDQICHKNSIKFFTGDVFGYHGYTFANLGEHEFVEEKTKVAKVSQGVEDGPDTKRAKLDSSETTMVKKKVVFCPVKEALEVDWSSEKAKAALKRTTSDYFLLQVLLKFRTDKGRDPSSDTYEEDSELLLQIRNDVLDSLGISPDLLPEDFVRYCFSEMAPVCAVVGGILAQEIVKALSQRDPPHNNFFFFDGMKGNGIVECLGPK

[2] = test system: c-Myc; assay: c-Myc activity (Table I, biological activities); design: key: + (less active); ++ (active); +++ (most active)

| Structure (SMILES) | SUMO [1] | c-Myc [2] |
| --- | --- | --- |
| COC(=O)C1=C(C(=O)Nc2ccccc2OC)C2C=CC1(C(Cc1ccccc1)Nc1ccccc1)O2 (stereo not shown) [Compound 352] | ++ | + |
| COC(=O)C1=C(C(=O)NCCN(C)C)C2C=CC1(C(Cc1ccc(C(F)(F)F)cc1)Nc1ccccc1)O2 (stereo not shown) [Compound 423] | ++ | ++ |
| CCOc1cccc(NC(Cc2ccccc2)C23C=CC(O2)C(C(=O)NCc2ccncc2)=C3C(=O)OC)c1 (stereo not shown) [Compound 254] | ++ | + |
| COC(=O)C1=C(C(=O)Nc2ccc(OC)cc2)C2C=CC1(C(Cc1ccccc1)Nc1cc(F)cc(F)c1)O2 (stereo not shown) [Compound 204] | +++ | + |
| COC(=O)C1=C(C(=O)NCCN2CCOCC2)C2C=CC1(C(Cc1ccccc1)Nc1cc(F)cc(Cl)c1)O2 (stereo not shown) [Compound 226] | +++ | ++ |
| CCOc1cccc(NC(Cc2ccccc2)C23C=CC(O2)C(C(=O)NCCN(C)C)=C3C(=O)OC)c1 (stereo not shown) [Compound 251] | +++ | + |
| CCOc1cccc(NC(Cc2ccccc2)C23C=CC(O2)C(C(N)=O)=C3C(=O)OC)c1 (stereo not shown) [Compound 249] | ++ | + |
| CCOC(=O)C1=C(C(=O)Nc2ccc(OC(F)(F)F)cc2)C2C=CC1(C(Nc1ccccc1)c1ccc(CN3CCOCC3)cc1)O2 (stereo not shown) [Compound 599] | ++ | ++ |
| COC(=O)C1=C(C(=O)OC)C2(C(Cc3ccccc3)Nc3ccccc3)C=CC1(C)O2 (stereo not shown) [Compound 586] | ++ | + |
| CCOC(=O)C1=C(C(=O)Nc2ccc(C)c(F)c2)C2C=CC1(C(Nc1ccc(OC)cc1)c1ccc(CN3CCOCC3)cc1)O2 (stereo not shown) [Compound 621] | + | + |
| COC(=O)C1=C(C(=O)NC2CCN(C(=O)c3cncnc3)CC2)C2C=CC1(C(Cc1ccccc1)Nc1ccccc1)O2 (stereo not shown) [Compound 390] | ++ | + |
| COC(=O)C1=C(C(=O)NNc2ccc(F)c(F)c2)C2C=CC1(C(Cc1ccccc1)Nc1cc(F)cc(F)c1)O2 (stereo not shown) [Compound 314] | ++ | + |
| COC(=O)C1=C(C(=O)OC)C2(C(CCc3ccccc3)Nc3ccccc3)C=CC1O2 (stereo not shown) [Compound 191] | ++ | + |
| COC(=O)C1=C(C(=O)Nc2ccc(OC)cc2)C2C=CC1(C(Cc1ccccc1)Nc1cccc(Oc3ccccc3)c1)O2 (stereo not shown) [Compound 321] | +++ | + |
| COC(=O)C1=C(C(=O)Nc2cccc(OC)c2)C2C=CC1(C(Cc1ccccc1)Nc1ccccc1)O2 (stereo not shown) [Compound 180] | + | + |
| COC(=O)C1=C(C(=O)Nc2ccc(C)nc2)C2C=CC1(C(Cc1ccccc1)Oc1ccccc1)O2 (stereo not shown) [Compound 333] | + | + |
| CCOC(=O)C1=C(C(=O)NCCN(C)C)C2C=CC1(C(Cc1ccccc1)Nc1ccc(F)cc1F)O2 (stereo not shown) [Compound 411] | ++ | + |
| COC(=O)C1=C(C(=O)NCCN(C)C)C2(C(Cc3ccccc3)Nc3cc(F)cc(F)c3)C=CC1O2 (stereo not shown) [Compound 401] | ++ | ++ |
| COC(=O)C1=C(C(=O)OC)C2(C(Cc3ccccc3)N(C(=O)C(F)(F)F)c3ccccc3)OC1C1=C2O1 (stereo not shown) [Compound 555] | + | + |
| COC(=O)C1=C(C(=O)Nc2cccc(F)c2C)C2C=CC1(C(Cc1ccccc1)Nc1ccccc1)O2 (stereo not shown) [Compound 359] | ++ | + |
| COC(=O)C1=C(C(=O)OC)C2(C(Cc3ccc(Cl)cc3)Nc3cc(F)cc(F)c3)C=CC1O2 (stereo not shown) [Compound 425] | ++ | + |
| COC(=O)C1=C(C(=O)NCCN(C)C)C2C=CC1(C(Cc1ccccc1)Nc1c(F)cccc1F)O2 (stereo not shown) [Compound 431] | ++ | + |
| COC(=O)C1=C(C(=O)Nc2ccc(OC)cc2)C2OC1(C(Cc1ccccc1)Oc1ccccc1)C1OC21 (stereo not shown) [Compound 522] | + | + |
